Read-outs that look alike come from different tables or passages of the source.
What was measured:
BuChE = target: T1, BuChE (Equus caballus, UniProt P81908); experiment: biochemical; conditions: BuChE from equine serum; means ± SEM of three experiments; read-out: BuChE Inhibition, (IC50)
T1 construct: purchased Aladdin B128570-2KU; host or cells: equine serum
Protocol: (§1) Acetylcholinesterase (AChE, E.C. 3.1.1.7, obtained from electric eel) was purchased from Sigma-Aldrich (St. Louis, MO, USA, product code: C3389-2KU). Butyrylcholinesterase (BuChE, E.C. 3.1.1.8, obtained from equine serum) was purchased from Aladdin (Shanghai, China, product code: B128570-2KU). […] The compounds were dissolved in a minimum volume of DMSO (1%) and then diluted in 0.1 M KH2PO4/K2HPO4 buffer (pH 8.0) to provide a final concentration range.
(§2) Enzyme solutions were prepared to give 2.0 units/ mL in 2 mL aliquots. The assay medium contained phosphate buffer, pH 8.0 (1 mL), 50 μL of 0.01 M DTNB, 10 μL of enzyme, and 50 μL of 0.01 M substrate (ATC). The substrate was added to the assay medium containing enzyme, buffer, and DTNB with inhibitor after 15 min of incubation time. […] In vitro BuChE assay used the similar method described above [31]. Each concentration was assayed in triplicate.

AChE [1] = target: T2, AChE (Electrophorus electricus, UniProt O42275); experiment: Kinetic characterization of AChE inhibition (Lineweaver-Burk plot); type: biochemical; conditions: Lineweaver–Burk plots
T2 construct: purchased Sigma-Aldrich C3389-2KU
T2 sequence (O42275 24-633): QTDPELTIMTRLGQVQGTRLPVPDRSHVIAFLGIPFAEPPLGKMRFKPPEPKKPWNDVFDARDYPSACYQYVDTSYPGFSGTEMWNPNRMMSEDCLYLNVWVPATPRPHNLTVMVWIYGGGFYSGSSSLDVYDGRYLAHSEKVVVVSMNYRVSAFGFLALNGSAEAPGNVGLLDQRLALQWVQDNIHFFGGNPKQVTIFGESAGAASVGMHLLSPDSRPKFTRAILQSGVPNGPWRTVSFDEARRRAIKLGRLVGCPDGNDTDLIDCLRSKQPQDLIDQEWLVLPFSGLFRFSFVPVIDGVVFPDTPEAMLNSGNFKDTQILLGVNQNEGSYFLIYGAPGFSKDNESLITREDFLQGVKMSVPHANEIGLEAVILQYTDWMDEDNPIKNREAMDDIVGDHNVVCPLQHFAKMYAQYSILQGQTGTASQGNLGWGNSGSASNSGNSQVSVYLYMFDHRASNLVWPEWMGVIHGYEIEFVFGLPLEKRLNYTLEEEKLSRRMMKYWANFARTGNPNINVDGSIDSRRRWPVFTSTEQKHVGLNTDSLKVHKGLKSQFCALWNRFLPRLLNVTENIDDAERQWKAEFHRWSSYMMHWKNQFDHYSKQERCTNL
Protocol: Three different concentrations (2, 4 and 8 nM) of substrate were mixed in the 1 mL 0.1 M KH2PO4/K2HPO4 buffer (pH 8.0), containing 10 μL AChE, 50 μL of DTNB, and 50 μL substrate. […] A parallel control with no inhibitor in the mixture, allowed adjusting activities to be measured at various times.

Aβ (1–42) = Aβ (1–42) (Homo sapiens, UniProt P05067); experiment: Inhibition of self-mediated Aβ (1–42) aggregation (thioflavin T fluorescence assay); conditions: for inhibition at 20 µM: read-out: Aβ (1–42) aggregation inhibition rate
Sequence of Aβ (1–42) (P05067 672-713): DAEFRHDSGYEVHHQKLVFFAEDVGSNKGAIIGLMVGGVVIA
Protocol: A thioflavin T based fluorometric assay was performed to investigate the self-mediated Aβ (1–42) aggregation [33]. Aβ (1–42) peptide (Sigma-Aldrich) was dissolved in phosphate buffer (0.01 M, pH 7.40) to obtain a 20 μM solution. Compounds were firstly dissolved in DMSO to obtain a 10 mM solution. Inhibitors and the final concentration of Aβ (1–42) were 20 μM. After incubated in 37 °C for 48 h, thioflavin-T (5 μM in 50 mM glycine-NaOH buffer, pH 8.00) was added. […] Each inhibitor was run in triplicate. The fluorescence intensities were recorded, and the percent inhibition on aggregation was calculated by the following expression: (1 − IFi/IFc) × 100% in which IFi and IFc were the fluorescence intensities obtained for absorbance in the presence and absence of inhibitors, respectively, after subtracting the fluorescence of respective blanks.

in vitro = conditions: human
Protocol: Thus, we used the methylthiazolyl tetrazolium (MTT) method [30] to perform a neurocyte (SH-SY5Y) toxicity test in vitro.
The SH-SY5Y cell line was seeded on 96-well plates at a density of 10^4 cells/well. […] Subsequently, 10 μL of 5 mg/mL MTT solution was added to each well and further incubated for 4 h at 37 °C. The solution was carefully removed, and each well was treated with DMSO (200 μL for each well). The optical density of the wells was then read on the microplate reader at 570 nm. All the tested compounds were performed in triplicate.

PC12 cells = experiment: Protective effect against H2O2-induced cell death in PC12 neurons (MTT); type: cell-based
Protocol: The neuroprotective activity of compound 4f against oxidative stress-induced cell death in PC12 cells was evaluated. Compound 4f was evaluated at concentrations of 1, 2.5 and 5 µM, and quercetin was used as the reference compound. […] […].
PC12 cells were cultured in DMEM media with 10% fetal calf serum (FCS, Hyclone) containing 100 units/mL penicillin and […] streptomycin under 5% CO2 at 37 °C. To produce oxidative stress, H2O2 was freshly prepared from a 30% stock solution prior to each experiment. PC12 cells were plated in cell culture plates at a density of 10^5 cells per well. In our study, 0.2 mM H2O2 were treated with PC12 cells for 24 h in the injury module, while the compound group cells were pretreated with different concentrations (1, 2.5 and 5 μM) of the compound 4f for 2 h. The control group cells were treated with the same medium without H2O2 or compound 4f. The cell viability of PC12 cells was evaluated using MTT assay. After, PC12 cells were cultured with 5 mg/mL MTT and incubated for 4 h at 37 °C. Then the cells were lysed in dimethyl sulfoxide DMSO ([…]). The absorbance was detected at 570 nm by a microplate reader (Bio-Tek). PC12 cells were cultured without 4f or H2O2 as control group and the results were expressed by percentage of control.

AChE [2] = target: T2, AChE; experiment: biochemical; conditions: for IC50: AChE from electric eel, means ± SEM of three experiments, read-out: AchE Inhibition, (IC50); for Selective Index: Selectivity Index = IC50 (BuChE)/IC50 (AChE)
Protocol: as §1, §2

[3] = Oxygen radical absorbance capacity-fluorescein (ORAC-FL) assay; conditions: Trolox equivalents, Trolox = 1
Protocol: Vitamin E analogue Trolox was used as the standard, and the results were expressed as Trolox equivalents.
The anti-oxidation activity was tested by using the oxygen radical absorbance capacity-fluorescein (ORAC-FL) assay [25, 32]. All the ORAC-assays measure antioxidant scavenging activity against peroxyl radical induced by 2,2′-azobis (2-amidinopropane) dihydrochloride (AAPH) at 37 °C.
The reaction was conducted with 75 mM phosphate buffer (pH 7.4) and the final reaction mixture was 200 μL. Fluorescein (120 μL, 300 nM final concentration) and antioxidant (20 μL) were placed in the wells of a black 96-well plate, and the mixture was incubated for 15 min at 37 °C. Then AAPH solution (60 μL, 12 mM final concentration) was added rapidly. […] 6-hydroxy-2,5,7,8-tetramethylchroman-2-carboxylic acid (Trolox) was used as a standard (1–5 μM, final concentration). A blank (FL + AAPH) using phosphate buffer instead of antioxidant and Trolox calibration were carried out in each assay. The samples were measured at different concentrations (1–5 μM), and at least three independent assays were performed for each sample. Fluorescence measurements were normalized based on the curve of the blank (without antioxidant). Antioxidant curves (fluorescence versus time) were normalized to the curve of the blank in the same assay, and then the area under the fluorescence decay curve (AUC) was calculated. The net AUC of a sample was obtained by subtracting the AUC from the blank. ORAC-FL values were expressed as Trolox equivalents by using the standard curve calculated for each sample, where the ORAC-FL value of Trolox was taken as one, indicating the antioxidant potency of the test compounds.

T1 sequence (P81908 whole entry): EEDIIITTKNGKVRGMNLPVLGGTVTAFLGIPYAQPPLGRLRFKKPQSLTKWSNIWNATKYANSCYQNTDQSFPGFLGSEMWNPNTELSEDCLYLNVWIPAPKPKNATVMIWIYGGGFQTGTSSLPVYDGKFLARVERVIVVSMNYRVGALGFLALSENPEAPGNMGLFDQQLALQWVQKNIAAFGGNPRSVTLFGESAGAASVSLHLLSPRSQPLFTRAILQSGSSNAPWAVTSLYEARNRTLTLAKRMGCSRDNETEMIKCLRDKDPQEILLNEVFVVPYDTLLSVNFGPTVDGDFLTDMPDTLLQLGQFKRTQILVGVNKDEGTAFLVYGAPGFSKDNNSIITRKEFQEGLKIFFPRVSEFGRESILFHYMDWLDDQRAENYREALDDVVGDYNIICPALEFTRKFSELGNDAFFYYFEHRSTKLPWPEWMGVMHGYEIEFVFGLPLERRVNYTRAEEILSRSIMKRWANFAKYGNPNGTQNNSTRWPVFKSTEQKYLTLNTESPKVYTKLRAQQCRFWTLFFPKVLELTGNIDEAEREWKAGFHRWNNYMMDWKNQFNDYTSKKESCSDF

Row | SMILES | IC50 (BuChE) [µM] | inhibition type against AChE (AChE [1]) | Ki (AChE [1]; superscript b not defined, read-out: Ki b) [µM] | Ki (AChE [1]; superscript c not defined, read-out: Ki c) [µM] | Ki (AChE [1]; superscript d not defined, read-out: Ki d) [µM] | IC50 (Aβ (1–42)) [µM] | inhibition at 20 µM (Aβ (1–42)) [%] | viability at 48 h, 1 µM (in vitro) [%] | viability at 48 h, 10 µM (in vitro) [%] | viability at 48 h, 50 µM (in vitro) [%] | viability at 48 h, 100 µM (in vitro) [%] | protective capability compared with quercetin (PC12 cells; 5 µM, H2O2 200 µM) | cytotoxicity toward the PC12 cells (PC12 cells; 1, 2.5 and 5 µM) | protection of PC12 neurons against H2O2-induced cell death (PC12 cells; pretreatment at 1, 2.5 and 5 µM, H2O2 200 µM, p-value < 0.01) | IC50 (AChE [2]) [µM] | Selective Index (AChE [2]) | ORAC [3]
1 | COc1ccc([C@@H]2CC(=O)c3c(O)cc(OCC(=O)NCc4ccc(C(F)(F)F)cc4)cc3O2)cc1O [Compound 4f, 2-[5-Hydroxy-2-(3-hydroxy-4-methoxyphenyl)-4-oxochroman-7-yloxy]-N-(4-trifluoro-methylbenzyl)acetamide] | 2.86 ± 0.045 | mixed-type inhibition | 0.00467 | 0.00427 | 0.00328 | 8.47 ± 0.44 | 76.3 | 100 ± 4.76 | 95.8 ± 7.31 | 83.3 ± 5.44 | 62.3 ± 5.78 | slightly better protective capability than quercetin | no cytotoxicity | significantly protected the neurons against cell death | 0.00937 ± 0.00087 | 305 | –
2 | COc1ccc(C2CC(=O)c3c(O)cc(OCC(=O)NCc4ccco4)cc3O2)cc1O (stereo not shown) [Compound 4t, N-Furan-2-ylmethyl-2-[5-hydroxy-2-(3-hydroxy-4-methoxyphenyl)-4-oxochroman-7-yloxy]acetamide] | 2.35 ± 0.104 | – | – | – | – | – | 70.8 | 99.9 ± 4.52 | 97.5 ± 3.65 | 81.8 ± 4.06 | 61.2 ± 5.12 | – | – | – | 0.0307 ± 0.0045 | 77 | 2.6 μM of Trolox equivalent/μMof tested compound
3 | COc1ccc(C2CC(=O)c3c(O)cc(OCC(=O)NCc4ccncc4)cc3O2)cc1O (stereo not shown) [Compound 4s, 2-[5-Hydroxy-2-(3-hydroxy-4-methoxyphenyl)-4-oxochroman-7-yloxy]-N-pyridin-4-ylmethylacetamide] | 1.85 ± 0.055 | – | – | – | – | – | 72 | 101 ± 6.17 | 97.5 ± 5.36 | 78.7 ± 3.46 | 59.6 ± 3.61 | – | – | – | 0.0273 ± 0.00099 | 68 | 2.4 μM of Trolox equivalent/μMof tested compound

Source: paper PMC6152180, “Design, Synthesis and Evaluation of Hesperetin Derivatives as Potential Multifunctional Anti-Alzheimer Agents” (Molecules : A Journal of Synthetic Chemistry and Natural …, 2017)
